The source of these data is patent publication US7781591B2, “Substituted 3-cyanopyridines as protein kinase inhibitors” (Wyeth LLC, priority 2006, dated 2010).

The term IC50 denotes the concentration needed to halve the response being measured.

Structures are written as SMILES.

T1 sequence (Q04759 whole entry): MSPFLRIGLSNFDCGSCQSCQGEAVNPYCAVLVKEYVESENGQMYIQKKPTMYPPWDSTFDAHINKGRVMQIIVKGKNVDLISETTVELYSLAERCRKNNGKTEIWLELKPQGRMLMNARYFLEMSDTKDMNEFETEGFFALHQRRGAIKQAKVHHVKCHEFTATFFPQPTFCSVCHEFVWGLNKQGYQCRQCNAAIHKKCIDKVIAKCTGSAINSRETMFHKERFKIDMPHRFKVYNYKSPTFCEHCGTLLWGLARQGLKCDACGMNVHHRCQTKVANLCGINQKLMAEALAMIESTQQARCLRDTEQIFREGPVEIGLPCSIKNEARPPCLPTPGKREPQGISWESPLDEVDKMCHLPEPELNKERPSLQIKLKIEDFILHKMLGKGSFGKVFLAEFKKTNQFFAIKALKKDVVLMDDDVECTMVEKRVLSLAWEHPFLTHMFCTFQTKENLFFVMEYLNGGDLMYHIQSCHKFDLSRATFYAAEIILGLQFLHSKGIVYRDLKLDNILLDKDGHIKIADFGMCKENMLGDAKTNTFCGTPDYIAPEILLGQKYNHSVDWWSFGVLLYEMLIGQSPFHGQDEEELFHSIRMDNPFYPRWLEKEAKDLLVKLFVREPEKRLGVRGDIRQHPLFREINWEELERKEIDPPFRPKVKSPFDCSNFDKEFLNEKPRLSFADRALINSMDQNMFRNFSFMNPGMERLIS

One test concerns the target T1, purified recombinant full length PKC theta (Panvera, P2996) (Homo sapiens, UniProt Q04759).
T1 construct: purified recombinant full length PKC theta (Panvera, P2996); purchased Panvera P2996
As to the kind of experiment: Radioactive kinase assay for inhibition of full length (FL) PKCθ. The class given is biochemical. The settings on record: average value. As to the method:
This assay is based on the phosphorylation of a biotinylated substrate by a kinase utilizing radiolabeled ATP (ATP γ P33). The substrate was a biotinylated peptide with a sequence of biotin-[…]-C(O)NH2. […] The assay buffer was composed of 100 mM Hepes, pH7.5, 2 mM MgCl2, 20 mM β-glycerophosphate and 0.008% TritonX 100. A reaction mixture of ATP, ATP γ P33 (PerkinElmer), DTT, and the enzyme was prepared in the assay buffer and added to a 96-well polypropylene plate. The compound (diluted in DMSO in a separate 96-well polypropylene plate) was added to the reaction mixture and incubated at room temperature. Following the incubation, the peptide substrate was added to the reaction mixture to initiate the enzymatic reaction. The reaction was terminated with the addition of a stop solution (100 mM EDTA, 0.2% TritonX100, and 20 mM NaHPO4) and transferred from the assay plate to a washed streptavidin-coated 96-well scintiplate (PerkinElmer). […] Counts were recorded for each well as corrected counts per minute (CCPM). The counts were considered corrected because they were adjusted according to a P33 normalization protocol, which corrects for efficiency and background differences between the instrument detectors (software version 4.40.01).
A Radioactive Kinase Assay for Inhibition of Full Length (FL) PKCθ Inhibitors
This assay differs from what was described above in that the enzyme used was purified recombinant full length PKC theta (Panvera, P2996).
Turning to `N#Cc1cncc(-c2ccccc2-c2cccc(Cl)c2)c1Nc1ccc2[nH]ccc2c1` [Compound 144, 5-(3′-chlorobiphenyl-2-yl)-4-(1H-indol-5-ylamino)nicotinonitrile], the IC50 stood at 910 nM.
Still for that read-out and setting: for `COc1ccc(-c2cncc(C#N)c2Nc2cc(C)c3[nH]ccc3c2)cc1OC` [Compound 217, 5-(3,4-dimethoxyphenyl)-4-[(7-methyl-1H-indol-5-yl)amino]nicotinonitrile] the value was 360 nM.
In the case of `N#Cc1cncc(-c2cccc(-c3cccnc3)c2)c1Nc1ccc2[nH]ccc2c1` [Compound 137, 4-(1H-indol-5-ylamino)-5-(3-pyridin-3-ylphenyl)nicotinonitrile], the IC50 worked out at 70 nM.
The same measure, in the same setting: for `COCCOc1ccc(-c2cncc(C#N)c2Nc2ccc3[nH]c(C)cc3c2)cc1OC` [Compound 163, 5-[3-methoxy-4-(2-methoxyethoxy)phenyl]-4-[(2-methyl-1H-indol-5-yl)amino]nicotinonitrile] the value was 320 nM; for `N#Cc1cncc(-c2cccc(OCCN3CCOCC3)c2)c1Nc1ccc2cc[nH]c2c1` [Compound 173, 4-(1H-indol-6-ylamino)-5-[3-(2-morpholin-4-ylethoxy)phenyl]nicotinonitrile], 2630 nM.
`N#Cc1cncc(-c2cccc(-c3ccsc3)c2)c1Nc1ccc2[nH]ccc2c1` [Compound 141, 4-(1H-indol-5-ylamino)-5-[3-(3-thienyl)phenyl]nicotinonitrile]: the half-inhibitory concentration (IC50) turned out to be 90 nM.
The same measure, in the same setting: for `N#Cc1cncc(-c2cccc(-c3ccncc3)c2)c1Nc1ccc2[nH]ccc2c1` [Compound 121, 4-(1H-indol-5-ylamino)-5-(3-pyridin-4-ylphenyl)nicotinonitrile] the value was 170 nM; for `N#Cc1cncc(-c2cccc(OCCN3CCOCC3)c2)c1Nc1ccc2[nH]ccc2c1` [Compound 175, 4-(1H-indol-5-ylamino)-5-[3-(2-morpholin-4-ylethoxy)phenyl]nicotinonitrile], 100 nM.
For `N#Cc1cncc(-c2ccccc2-c2ccc(Cl)cc2)c1Nc1ccc2[nH]ccc2c1` [Compound 145, 5-(4′-chlorobiphenyl-2-yl)-4-(1H-indol-5-ylamino)nicotinonitrile], the IC50 is 1920 nM.
Same read-out and setting: the result for `COCCOc1cc(-c2cncc(C#N)c2Nc2ccc3[nH]nnc3c2)ccc1OC` [Compound 158, 4-(1H-1,2,3-benzotriazol-5-ylamino)-5-[4-methoxy-3-(2-methoxyethoxy)phenyl]nicotinonitrile] reads 37400 nM; that for `N#Cc1cncc(-c2cccc(OCCN3CCCC3)c2)c1Nc1cccc2[nH]ccc12` [Compound 169, 4-(1H-indol-4-ylamino)-5-[3-(2-pyrrolidin-1-ylethoxy)phenyl]nicotinonitrile], 30 nM; that for `N#Cc1cncc(-c2cccc(-c3ccc(C(=O)NCc4ccccc4)cc3)c2)c1Nc1ccc2[nH]ccc2c1` [Compound 204, N-benzyl-3′-[5-cyano-4-(1H-indol-5-ylamino)pyridin-3-yl]biphenyl-4-carboxamide], 190 nM.
For the compound `N#Cc1cncc(-c2cccc(OCCCl)c2)c1Nc1cccc2[nH]ccc12` [Compound 165, 5-[3-(2-chloroethoxy)phenyl]-4-(1H-indol-4-ylamino)nicotinonitrile], the IC50 worked out at 20 nM.
Turning to `CC(=O)Nc1cccc(-c2cncc(C#N)c2Nc2ccc3[nH]ccc3c2)c1` [Compound 152, N-{3-[5-cyano-4-(1H-indol-5-ylamino)pyridin-3-yl]phenyl}acetamide], the 50% inhibitory concentration (IC50) was 1940 nM.
As to `COCCOc1cc(-c2cncc(C#N)c2Nc2ccc3cc[nH]c3c2)ccc1OC` [Compound 155, 4-(1H-indol-6-ylamino)-5-[4-methoxy-3-(2-methoxyethoxy)phenyl]nicotinonitrile], the IC50 is 7800 nM.
Same read-out and setting: the result for `N#Cc1cncc(-c2cccc(OCCCl)c2)c1Nc1ccc2[nH]ccc2c1` [Compound 167, 5-[3-(2-chloroethoxy)phenyl]-4-(1H-indol-5-ylamino)nicotinonitrile] reads 110 nM; that for `N#Cc1cncc(-c2cccc(OCCN3CCOCC3)c2)c1Nc1cccc2[nH]ccc12` [Compound 170, 4-(1H-indol-4-ylamino)-5-[3-(2-morpholin-4-ylethoxy)phenyl]nicotinonitrile], 20 nM; that for `N#Cc1cncc(-c2cccc(-c3ccc(C(=O)N4CCOCC4)cc3)c2)c1Nc1ccc2[nH]ccc2c1` [Compound 206, 4-(1H-indol-5-ylamino)-5-[4′-(morpholin-4-ylcarbonyl)biphenyl-3-yl]nicotinonitrile], 1140 nM.

A further test deals with T2, human PKCθ full length enzyme (Homo sapiens, UniProt Q04759).
T2 construct: human PKCθ full length enzyme (Panvera Cat# P2996); purchased Panvera P2996
T2 sequence (Q04759 whole entry): as above
The test can be described thus: PKCθ IMAP assay (fluorescence polarization). The note with it: human PKCθ full length enzyme, IMAP; average value; read-out: IC50 PKCθ IMAP. The class given is biochemical. (In general: In fluorescence polarisation assays a small probe gives low polarisation when free and higher when bound to something large.)
With `Cc1c(Nc2c(C#N)cncc2-c2ccc(CN3CCN(C(C)C)CC3)o2)ccc2[nH]ccc12` [Compound 437, 5-{5-[(4-isopropylpiperazin-1-yl)methyl]-2-furyl}-4-[(4-methyl-1H-indol-5-yl)amino]nicotinonitrile], the IC50 was determined as 2 nM.
The same measure, in the same setting: the result for `COc1ccc(-c2cncc(C#N)c2Nc2ccc3[nH]ccc3c2)cc1OCCN1CCCCC1` [Compound 235, 4-(1H-indol-5-ylamino)-5-[4-methoxy-3-(2-piperidin-1-ylethoxy)phenyl]nicotinonitrile] reads 240 nM; that for `Cc1c(Nc2c(C#N)cncc2-c2nccs2)ccc2[nH]ccc12` [Compound 541, 4-[(4-methyl-1H-indol-5-yl)amino]-5-(1,3-thiazol-2-yl)nicotinonitrile], 7 nM.
Still for that read-out and setting: for `Cc1c(Nc2c(C#N)cncc2-c2cccs2)ccc2[nH]ccc12` [Compound 561, 4-[(4-methyl-1H-indol-5-yl)amino]-5-(2-thienyl)nicotinonitrile] the value was 21 nM; for `COc1ccc(-c2cncc(C#N)c2Nc2cccc3[nH]ccc23)cc1` [Compound 323, 4-(1H-indol-4-ylamino)-5-(4-methoxyphenyl)nicotinonitrile], 20 nM; for `Cc1c(Nc2c(C#N)cncc2-c2ccc(NC(=O)N3CCOCC3)cc2)ccc2[nH]ccc12` [Compound 569, N-(4-{5-cyano-4-[(4-methyl-1H-indol-5-yl)amino]pyridin-3-yl}phenyl)morpholine-4-carboxamide], 59 nM.
Same read-out and setting: for `COc1ccc(-c2cncc(C#N)c2Nc2ccc3[nH]ccc3c2)cc1-c1ccc(Cl)cc1` [Compound 190, 5-(4′-chloro-6-methoxybiphenyl-3-yl)-4-(1H-indol-5-ylamino)nicotinonitrile] the value was 180 nM.
For the compound `CCCCNC(=O)c1ccc(-c2cccc(-c3cncc(C#N)c3Nc3cccc4[nH]ccc34)c2)cc1` [Compound 215, N-butyl-3′-[5-cyano-4-(1H-indol-4-ylamino)pyridin-3-yl]biphenyl-4-carboxamide], the IC50 stood at 60 nM.
The same measure, in the same setting: for `Cc1c(Nc2c(C#N)cncc2-c2cc3cc(CN4CCC(N5CCCCC5)CC4)ccc3o2)ccc2[nH]ccc12` [Compound 394, 5-[5-(1,4′-bipiperidin-1′-ylmethyl)-1-benzofuran-2-yl]-4-[(4-methyl-1H-indol-5-yl)amino]nicotinonitrile] the value was 1 nM; for `Cc1c(Nc2c(C#N)cncc2-c2cc3cc(CNCCCO)ccc3o2)ccc2[nH]ccc12` [Compound 384, 5-(5-{[(3-hydroxypropyl)amino]methyl}-1-benzofuran-2-yl)-4-[(4-methyl-1H-indol-5-yl)amino]nicotinonitrile], 2 nM; for `Cc1c(Nc2c(C#N)cncc2-c2cc3cc(CN(C)CC(O)CO)ccc3o2)ccc2[nH]ccc12` (stereo not shown) [Compound 386, 5-(5-{[(2,3-dihydroxypropyl)(methyl)amino]methyl}-1-benzofuran-2-yl)-4-[(4-methyl-1H-indol-5-yl)amino]nicotinonitrile], 5 nM.
The same measure, in the same setting: for `Cc1c(Nc2c(C#N)cncc2-c2cc3cc(CO)ccc3s2)ccc2[nH]ccc12` [Compound 229, 5-[5-(hydroxymethyl)-1-benzothien-2-yl]-4-[(4-methyl-1H-indol-5-yl)amino]nicotinonitrile] the value was 8 nM; for `COCCCNCc1ccc2sc(-c3cncc(C#N)c3Nc3cccc4[nH]ccc34)cc2c1` [Compound 276, 4-(1H-indol-4-ylamino)-5-(5-{[(3-methoxypropyl)amino]methyl}-1-benzothien-2-yl)nicotinonitrile], 2 nM.
For `N#Cc1cncc(-c2cccc(-c3ccc(C(=O)NCCO)cc3)c2)c1Nc1cccc2[nH]ccc12` [Compound 216, 3′-[5-cyano-4-(1H-indol-4-ylamino)pyridin-3-yl]-N-(2-hydroxyethyl)biphenyl-4-carboxamide], the IC50 came out at 50 nM.
Same read-out and setting: for `COc1ccc(-c2cncc(C#N)c2Nc2ccc3[nH]ccc3c2F)cc1OC` [Compound 546, 5-(3,4-dimethoxyphenyl)-4-[(4-fluoro-1H-indol-5-yl)amino]nicotinonitrile] the value was 5 nM; for `CCN(CC)Cc1ccc(-c2cncc(C#N)c2Nc2ccc3[nH]ccc3c2C)o1` [Compound 406, 5-{5-[(diethylamino)methyl]-2-furyl}-4-[(4-methyl-1H-indol-5-yl)amino]nicotinonitrile], 42 nM.
